For the test, the target named is T1, ERα protein (HiBiT-tagged) in ESR1_HiBiT KI MCF7 cells (Homo sapiens, UniProt P03372).
T1 sequence (P03372 1-595): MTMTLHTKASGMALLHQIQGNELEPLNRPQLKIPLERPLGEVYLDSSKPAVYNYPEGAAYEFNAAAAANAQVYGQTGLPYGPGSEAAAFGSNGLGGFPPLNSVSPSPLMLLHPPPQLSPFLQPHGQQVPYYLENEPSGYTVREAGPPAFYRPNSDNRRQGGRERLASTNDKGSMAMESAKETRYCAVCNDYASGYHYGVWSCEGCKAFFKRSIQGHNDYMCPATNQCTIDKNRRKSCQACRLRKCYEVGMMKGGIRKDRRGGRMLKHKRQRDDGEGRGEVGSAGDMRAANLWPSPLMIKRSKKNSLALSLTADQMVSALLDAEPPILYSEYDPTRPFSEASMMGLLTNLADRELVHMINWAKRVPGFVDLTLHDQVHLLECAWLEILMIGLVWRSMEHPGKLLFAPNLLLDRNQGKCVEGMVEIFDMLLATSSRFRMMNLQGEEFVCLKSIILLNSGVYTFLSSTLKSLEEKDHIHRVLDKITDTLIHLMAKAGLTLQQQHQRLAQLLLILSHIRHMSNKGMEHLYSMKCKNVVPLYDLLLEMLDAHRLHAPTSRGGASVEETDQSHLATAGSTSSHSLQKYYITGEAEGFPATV
Kind of test: Nano Glo HiBiT Lytic Degradation Assay. The format is cell-based. The conditions noted are these: 6 hours with compound, 14-point dose response 1:3, bell-shape curve fit, half-maximal effect of first Hill model, read-out: MCF7 ESR1 HiBiT - (DC50). Put shortly:
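HiBiT-tagged endogenous ERα remaining in MCF7 knock-in cells was quantified by lytic luminescence after a 6 h treatment. DC50 values derive from a bell-shaped curve, taken at the first Hill component's half-maximal effect.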
(HiBiT is a short tag that completes a luciferase, so light tracks the accessible tagged protein.)

A value given as a limit tells only on which side of the number the result lay.

DC50 data for 18 compounds are collected here from patent US20250388565A1, “ESTROGEN RECEPTOR ALPHA DEGRADERS AND METHODS OF USE THEREOF” (Relay Therapeutics, Inc., priority 2022, published 2025).

Usually DC50 stands for the midpoint of the concentration-degradation curve. On to `O=C1CC[C@H](N2Cc3cc(N4CCN(CC5CCN(c6ccc([C@@H]7c8ccc(O)cc8C(F)(F)C[C@@H]7c7ccccc7)c(F)c6)CC5)CC4)ccc3C2=O)C(=O)N1` [Compound I-199, (S)-3-(5-(4-((1-(4-((1S,2S)-4,4-difluoro-6-hydroxy-2-phenyl-1,2,3,4-tetrahydronaphthalen-1-yl)-3-fluorophenyl)piperidin-4-yl)methyl)piperazin-1-yl)-1-oxoisoindolin-2-yl)piperidine-2,6-dione], for which the DC50 came out at 0.33 nM. As to `O=C1CC[C@H](N2Cc3cc(N4CCN(CC5CCN(c6ccc([C@@H]7c8ccc(O)cc8C(F)(F)C[C@@H]7c7ccccc7)cn6)CC5)CC4)ccc3C2=O)C(=O)N1` [Compound I-202, (3S)-3-[5-[4-[[1-[5-[(1S,2S)-4,4-difluoro-6-hydroxy-2-phenyl-tetralin-1-yl]-2-pyridyl]-4-piperidyl]methyl]piperazin-1-yl]-1-oxo-isoindolin-2-yl]piperidine-2,6-dione], the DC50 worked out at 0.3 nM. Regarding `O=C1CC[C@H](N2Cc3cc(N4CCN(CC5CCN(c6ccc([C@@H]7c8ccc(O)cc8C(F)(F)C[C@@H]7c7ccccc7)nc6)CC5)CC4)ccc3C2=O)C(=O)N1` [Compound I-203, (S)-3-(5-(4-((1-(6-((1S,2S)-4,4-difluoro-6-hydroxy-2-phenyl-1,2,3,4-tetrahydronaphthalen-1-yl)pyridin-3-yl)piperidin-4-yl)methyl)piperazin-1-yl)-1-oxoisoindolin-2-yl)piperidine-2,6-dione], the DC50 was determined as 0.23 nM. Take `CC(C)(O)[C@H]1CCc2cc(O)ccc2[C@H]1c1ccc(N2CCC(CN3CCN(c4ccc5c(c4)CN([C@H]4CCC(=O)NC4=O)C5=O)CC3)CC2)cc1` [Compound I-204, (S)-3-(5-(4-((1-(4-((1R,2S)-6-hydroxy-2-(2-hydroxypropan-2-yl)-1,2,3,4-tetrahydronaphthalen-1-yl)phenyl)piperidin-4-yl)methyl)piperazin-1-yl)-1-oxoisoindolin-2-yl)piperidine-2,6-dione]: the DC50 was 2 nM.

On to `CC(C)(O)[C@@H]1CCc2cc(O)ccc2[C@@H]1c1ccc(N2CCC(CN3CCN(c4ccc5c(c4)CN([C@H]4CCC(=O)NC4=O)C5=O)CC3)CC2)cc1` [Compound I-219, (S)-3-(5-(4-((1-(4-((1S,2R)-6-hydroxy-2-(2-hydroxypropan-2-yl)-1,2,3,4-tetrahydronaphthalen-1-yl)phenyl)piperidin-4-yl)methyl)piperazin-1-yl)-1-oxoisoindolin-2-yl)piperidine-2,6-dione], for which the 50% degradation concentration (DC50) is no less than 10000 nM. On to `CC(C)C[C@@H]1CC(F)(F)c2cc(O)ccc2[C@@H]1c1ccc(N2CCC(CN3CCN(c4ccc5c(c4)CN([C@H]4CCC(=O)NC4=O)C5=O)CC3)CC2)cc1` [Compound I-220, (S)-3-(5-(4-((1-(4-((1S,2R)-4,4-difluoro-6-hydroxy-2-isobutyl-1,2,3,4-tetrahydronaphthalen-1-yl)phenyl)piperidin-4-yl)methyl)piperazin-1-yl)-1-oxoisoindolin-2-yl)piperidine-2,6-dione], for which the DC50 stood at 14 nM. As for `O=C1CC[C@H](N2Cc3cc(N4CCN(CC5CCN(c6ccc([C@H]7c8ccc(O)cc8C(F)(F)C[C@H]7CC7CCCC7)cc6)CC5)CC4)ccc3C2=O)C(=O)N1` [Compound I-229, (3S)-3-[5-[4-[[1-[4-[(1S,2R)-2-(cyclopentylmethyl)-4,4-difluoro-6-hydroxy-tetralin-1-yl]phenyl]-4-piperidyl]methyl]piperazin-1-yl]-1-oxo-isoindolin-2-yl]piperidine-2,6-dione], the DC50 is no less than 10000 nM. On to `O=C1CC[C@H](N2Cc3cc(N4CCN(CC5CCN(c6ccc([C@H]7c8ccc(O)cc8C(F)(F)C[C@H]7C7CCCC7)cc6)CC5)CC4)ccc3C2=O)C(=O)N1` [Compound I-234, (S)-3-(5-(4-((1-(4-((1S,2S)-2-cyclopentyl-4,4-difluoro-6-hydroxy-1,2,3,4-tetrahydronaphthalen-1-yl)phenyl)piperidin-4-yl)methyl)piperazin-1-yl)-1-oxoisoindolin-2-yl)piperidine-2,6-dione], for which the DC50 came out at 959 nM. On to `O=C1CC[C@H](N2Cc3cc(N4CCN(CC5CCN(c6ccc([C@H]7c8ccc(O)cc8CC[C@H]7C7CCCCC7)cc6F)CC5)CC4)ccc3C2=O)C(=O)N1` [Compound I-236, (S)-3-(5-(4-((1-(4-((1S,2S)-2-cyclohexyl-6-hydroxy-1,2,3,4-tetrahydronaphthalen-1-yl)-2-fluorophenyl)piperidin-4-yl)methyl)piperazin-1-yl)-1-oxoisoindolin-2-yl)piperidine-2,6-dione], for which the DC50 came to 72 nM.

As to `C[C@@]1(C2CCCCC2)CCc2cc(O)ccc2[C@@H]1c1ccc(N2CCC(CN3CCN(c4ccc5c(c4)CN([C@H]4CCC(=O)NC4=O)C5=O)CC3)CC2)cc1` [Compound I-237, (S)-3-(5-(4-((1-(4-((1S,2S)-2-cyclohexyl-6-hydroxy-2-methyl-1,2,3,4-tetrahydronaphthalen-1-yl)phenyl)piperidin-4-yl)methyl)piperazin-1-yl)-1-oxoisoindolin-2-yl)piperidine-2,6-dione], the DC50 is no less than 10000 nM.

As for `C[C@]1(C2CCCCC2)CCc2cc(O)ccc2[C@H]1c1ccc(N2CCC(CN3CCN(c4ccc5c(c4)CN([C@H]4CCC(=O)NC4=O)C5=O)CC3)CC2)cc1` [Compound I-238, (S)-3-(5-(4-((1-(4-((1R,2R)-2-cyclohexyl-6-hydroxy-2-methyl-1,2,3,4-tetrahydronaphthalen-1-yl)phenyl)piperidin-4-yl)methyl)piperazin-1-yl)-1-oxoisoindolin-2-yl)piperidine-2,6-dione], the DC50 was found to be 4 nM. Consider `C[C@]1(C2CCCCC2)CCc2cc(O)ccc2[C@@H]1c1ccc(N2CCC(CN3CCN(c4ccc5c(c4)CN([C@H]4CCC(=O)NC4=O)C5=O)CC3)CC2)cc1` [Compound I-239, (S)-3-(5-(4-((1-(4-((1S,2R)-2-cyclohexyl-6-hydroxy-2-methyl-1,2,3,4-tetrahydronaphthalen-1-yl)phenyl)piperidin-4-yl)methyl)piperazin-1-yl)-1-oxoisoindolin-2-yl)piperidine-2,6-dione], for which the DC50 is 1990 nM.

Turning to `C[C@@]1(C2CCCCC2)CCc2cc(O)ccc2[C@H]1c1ccc(N2CCC(CN3CCN(c4ccc5c(c4)CN([C@H]4CCC(=O)NC4=O)C5=O)CC3)CC2)cc1` [Compound I-240, (S)-3-(5-(4-((1-(4-((1R,2S)-2-cyclohexyl-6-hydroxy-2-methyl-1,2,3,4-tetrahydronaphthalen-1-yl)phenyl)piperidin-4-yl)methyl)piperazin-1-yl)-1-oxoisoindolin-2-yl)piperidine-2,6-dione], the DC50 turned out to be 3 nM. In the case of `O=C1CC[C@H](N2Cc3cc(N4CCN(CC5CCN(c6ccc([C@H]7c8ccc(O)cc8CC[C@H]7C78CC9CC(CC(C9)C7)C8)cc6)CC5)CC4)ccc3C2=O)C(=O)N1` [Compound I-241, (S)-3-(5-(4-((1-(4-((1S,2R)-2-((3S,5S,7S)-adamantan-1-yl)-6-hydroxy-1,2,3,4-tetrahydronaphthalen-1-yl)phenyl)piperidin-4-yl)methyl)piperazin-1-yl)-1-oxoisoindolin-2-yl)piperidine-2,6-dione], the 50% degradation concentration (DC50) was 370 nM. Turning to `O=C1CC[C@H](N2Cc3cc(N4CCN(CC5CCN(c6ccc([C@H]7c8ccc(O)cc8CO[C@H]7C7CCC7)cc6)CC5)CC4)ccc3C2=O)C(=O)N1` [Compound I-244, (S)-3-(5-(4-((1-(4-((3S,4S)-3-cyclobutyl-7-hydroxyisochroman-4-yl)phenyl)piperidin-4-yl)methyl)piperazin-1-yl)-1-oxoisoindolin-2-yl)piperidine-2,6-dione], the half-maximal degradation concentration (DC50) worked out at 4 nM. As for `O=C1CC[C@H](N2Cc3cc(N4CCN(CC5CCN(c6ccc([C@@H]7c8ccc(O)cc8CO[C@@H]7C7CCC7)cc6)CC5)CC4)ccc3C2=O)C(=O)N1` [Compound I-245, (S)-3-(5-(4-((1-(4-((3R,4R)-3-cyclobutyl-7-hydroxyisochroman-4-yl)phenyl)piperidin-4-yl)methyl)piperazin-1-yl)-1-oxoisoindolin-2-yl)piperidine-2,6-dione], the 50% degradation concentration (DC50) was found to be 0.23 nM. For `O=C1CC[C@H](N2Cc3cc(N4CCN(CC5CCN(c6ccc([C@H]7c8ccc(O)cc8CO[C@@H]7C7CCCCC7)cc6)CC5)CC4)ccc3C2=O)C(=O)N1` [Compound I-248, (S)-3-(5-(4-((1-(4-((3R,4S)-3-cyclohexyl-7-hydroxyisochroman-4-yl)phenyl)piperidin-4-yl)methyl)piperazin-1-yl)-1-oxoisoindolin-2-yl)piperidine-2,6-dione], the DC50 worked out at 21 nM. Turning to `O=C1CC[C@H](N2Cc3cc(N4CCN(CC5CCN(c6ccc([C@@H]7c8ccc(O)cc8CO[C@H]7C7CCCCC7)cc6)CC5)CC4)ccc3C2=O)C(=O)N1` [Compound I-249, (S)-3-(5-(4-((1-(4-((3S,4R)-3-cyclohexyl-7-hydroxyisochroman-4-yl)phenyl)piperidin-4-yl)methyl)piperazin-1-yl)-1-oxoisoindolin-2-yl)piperidine-2,6-dione], the DC50 is 0.61 nM.
